Measurements published in patent publication US9790221B2, “Heteroaryl compounds as IRAK inhibitors and uses thereof” (Merck Patent GmbH, priority 2014, dated 2017).

Assays:
[1] = molecular target: IRAK1 (His-TEV-IRAK1 (194-712)) (Homo sapiens (Human), UniProt P51617); test: IRAK1 enzymatic assay; type: biochemical
Procedure: IRAK1 is a human purified recombinant enzyme (His-TEV-IRAK1 (194-712)). In this assay, IRAK-1 hydrolyses ATP and autophosphorylates. Measurement of IRAK-1 inhibition was performed in streptavidin coated 384well FlashPlate (PerkinElmer #SMP410A).
His-TEV-IRAK-1 (15 ng/well), ATP (1 μM, [33P]ATP 0.25 μCi/well) and compounds in DMSO (range of concentrations from 20 µM to 1 nM) or controls (2% DMSO) were incubated for 3 hours at 30° C. in assay buffer: Hepes pH7.0 50 mM, Fatty acid-free BSA 0.1%, Dithiothreitol DTT 2 mM, MgCl2 10 mM, EGTA 0.5 mM, Triton-X-100 0.01%. Kinase reaction was stopped by addition of EDTA. Supernatant was discarded, plates were washed three times with 150 mM NaCl and radioactivity was then measured in a Microbeta Trilux reader.

IRAK4 = IRAK4 (Homo sapiens (Human), UniProt Q9NWZ3); test: IRAK4 enzymatic assay; type: biochemical
IRAK4, sequence (Q9NWZ3 whole entry): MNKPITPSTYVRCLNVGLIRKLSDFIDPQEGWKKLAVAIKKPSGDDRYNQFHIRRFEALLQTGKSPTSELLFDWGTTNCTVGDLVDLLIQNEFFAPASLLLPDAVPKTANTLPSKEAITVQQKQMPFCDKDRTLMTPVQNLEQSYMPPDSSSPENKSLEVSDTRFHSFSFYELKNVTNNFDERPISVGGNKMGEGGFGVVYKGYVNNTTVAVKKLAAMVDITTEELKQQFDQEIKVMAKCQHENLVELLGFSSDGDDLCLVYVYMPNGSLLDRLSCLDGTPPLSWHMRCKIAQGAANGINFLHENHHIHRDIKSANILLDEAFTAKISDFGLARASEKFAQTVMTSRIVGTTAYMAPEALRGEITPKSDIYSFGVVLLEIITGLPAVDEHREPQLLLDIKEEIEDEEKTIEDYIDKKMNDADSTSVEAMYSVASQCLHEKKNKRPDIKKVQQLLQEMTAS
Procedure: IRAK4 is a human purified recombinant enzyme ([…]. IRAK4 hydrolyses ATP, autophosphorylates and phosphorylates a Serine/Threonine generic peptidic substrate (STK: 61ST1BLC from CisBio International based in Bagnols/Cèze FR).
Measurement of IRAK-4 inhibition was performed in streptavidin coated 384well FlashPlate (PerkinElmer #SMP410A). His-TEV-IRAK4 (20 ng/well), ATP (2 μM, [^33P]ATP 0.25 µCi/well), STK1-biotin peptide (300 nM) and compounds in DMSO (range of concentrations from 20 µM to 1 nM) or controls (2% DMSO) were incubated for 3 hours at 30° C. in assay buffer: Hepes pH7.0 50 mM, Fatty acid-free BSA 0.1%, Dithiothreitol DTT 2 mM, MgCl2 10 mM, EGTA 0.5 mM, Tween-20 0.01%, MnCl2 5 mM.
Kinase reaction was stopped by addition of EDTA. Supernatant was discarded, plates were washed three times with 150 mM NaCl and radioactivity was then measured in a Microbeta Trilux reader.

IRAK1 (His-TEV-IRAK1 (194-712)), sequence (P51617 194-712): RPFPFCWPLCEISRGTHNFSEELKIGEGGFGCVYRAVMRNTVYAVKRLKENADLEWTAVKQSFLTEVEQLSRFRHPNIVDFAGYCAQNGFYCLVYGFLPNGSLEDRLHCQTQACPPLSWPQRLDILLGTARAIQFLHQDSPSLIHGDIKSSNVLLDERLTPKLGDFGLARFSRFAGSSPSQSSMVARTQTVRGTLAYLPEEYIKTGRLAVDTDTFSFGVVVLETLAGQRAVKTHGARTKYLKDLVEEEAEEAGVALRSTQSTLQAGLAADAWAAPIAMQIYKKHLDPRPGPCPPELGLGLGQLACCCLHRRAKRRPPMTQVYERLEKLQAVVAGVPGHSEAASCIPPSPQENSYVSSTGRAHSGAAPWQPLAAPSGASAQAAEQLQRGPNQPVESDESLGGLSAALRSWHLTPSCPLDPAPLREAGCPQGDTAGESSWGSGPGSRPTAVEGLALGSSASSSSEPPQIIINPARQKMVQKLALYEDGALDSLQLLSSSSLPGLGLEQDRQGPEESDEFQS

Row | IC50 [1] | IC50 (IRAK4) | SMILES
1 | > 5000 nM | 1000 to 5000 nM | Cn1cc(-c2cccc(-c3ncc(-c4ccn(C)n4)c(OCC4CCCCO4)n3)c2)cn1 (stereo not shown) [Example 8, 5-(1-Methyl-1H-pyrazol-3-yl)-2-[3-(1-methyl-1H-pyrazol-4-yl)-phenyl]-4-(tetrahydro-pyran-2-ylmethoxy)-pyrimidine]
2 | 1000 to 5000 nM | < 100 nM | Cn1cc(-c2cccc(-c3ncc(-c4cnn(C)c4)c(NCC4CCN(S(C)(=O)=O)CC4F)n3)c2)cn1 (stereo not shown) [Example 234]
3 | 100 to 1000 nM | < 100 nM | Cn1cc(-c2cccc(-c3ncc(-c4cnn(C)c4)c(NC[C@H]4CC[C@H](O)C4)n3)c2)cn1 (racemic) [Example 165]
4 | > 5000 nM | 100 to 1000 nM | CC(=O)N1CCCCC1CCNc1nc(-c2cccc(-c3cnn(C)c3)c2)ncc1-c1cnn(C)c1 (stereo not shown) [Example 258]
5 | > 5000 nM | 1000 to 5000 nM | Cn1cc(-c2cccc(-c3ncc(-c4cnn(C)c4)c(NCCN4CCC(O)CC4)n3)c2)cn1 [Example 110]
6 | > 5000 nM | > 5000 nM | Cn1cc(-c2cccc(-c3ncc(-c4ccn(C)n4)c(NCC4CCNCC4)n3)c2)cn1 [Example 12, {5-(1-Methyl-1H-pyrazol-3-yl)-2-[3-(1-methyl-1H-pyrazol-4-yl)-phenyl]-pyrimidin-4-yl}-piperidin-4-ylmethyl-amine]
7 | 1000 to 5000 nM | 100 to 1000 nM | Cn1cc(-c2cccc(-c3ncc(-c4cnn(C)c4)c(N4CCC(CO)C4)n3)c2)cn1 (stereo not shown) [Example 261]
8 | 100 to 1000 nM | 100 to 1000 nM | CC(=O)N1CCC(Nc2nc(-c3cccc(-c4cnn(C)c4)c3)ncc2-c2cnn(C)c2)CC1 [Example 255]
9 | > 5000 nM | < 100 nM | Cn1cc(-c2cccc(-c3ncc(-c4ccn(C)n4)c(N[C@H]4CC[C@H](O)CC4)n3)c2)cn1 [Example 147]
10 | 100 to 1000 nM | < 100 nM | Cn1cc(-c2cccc(-c3ncc(-c4cnn(C)c4)c(NCCC4(O)CCCC4)n3)c2)cn1 [Example 227]
11 | 1000 to 5000 nM | < 100 nM | Cn1cc(-c2cccc(-c3ncc(-c4cnn(C)c4)c(N[C@@H]4CC[C@H](NS(C)(=O)=O)C4)n3)c2)cn1 (racemic) [Example 176]
12 | > 5000 nM | 100 to 1000 nM | CC(Nc1nc(-c2cccc(-c3cnn(C)c3)c2)ncc1-c1cnn(C)c1)C1CCN(S(C)(=O)=O)CC1 (stereo not shown) [Example 274]
13 | > 5000 nM | 100 to 1000 nM | Cn1cc(-c2cccc(-c3ncc(-c4ccn(C)n4)c(NCC4CCNC4)n3)c2)cn1 (stereo not shown) [Example 144]
14 | 1000 to 5000 nM | 100 to 1000 nM | CC(=O)N1CCC(F)(CNc2nc(-c3cccc(-c4cnn(C)c4)c3)ncc2-c2cnn(C)c2)CC1 [Example 237]
15 | > 5000 nM | 1000 to 5000 nM | Cn1cc(-c2cccc(-c3ncc(-c4ccn(C)n4)c(NCCCN4CCCC4=O)n3)c2)cn1 [Example 72]
16 | 100 to 1000 nM | 100 to 1000 nM | Cn1cc(-c2cccc(-c3ncc(-c4cnn(C)c4)c(NC4CCCCN(S(C)(=O)=O)C4)n3)c2)cn1 (stereo not shown) [Example 178]
17 | 100 to 1000 nM | < 100 nM | Cn1cc(-c2cccc(-c3ncc(-c4cnn(C)c4)c(N4CCCC(CO)C4)n3)c2)cn1 (stereo not shown) [Example 220]
18 | 1000 to 5000 nM | 100 to 1000 nM | Cn1cc(-c2cccc(-c3ncc(-c4ccn(C)n4)c(NC4CC(O)C4)n3)c2)cn1 (stereo not shown) [Example 82]
19 | > 5000 nM | 100 to 1000 nM | Cn1cc(-c2cccc(-c3ncc(-c4ccn(C)n4)c(NC[C@H]4CCNC[C@H]4O)n3)c2)cn1 (racemic) [Example 116]
20 | 100 to 1000 nM | < 100 nM | Cn1cc(-c2cccc(-c3ncc(-c4cnn(C)c4)c(NCCCCNS(C)(=O)=O)n3)c2)cn1 [Example 177]
21 | > 5000 nM | 100 to 1000 nM | Cn1cc(-c2cccc(-c3ncc(-c4ccn(C)n4)c(NCCN4CCOCC4)n3)c2)cn1 [Example 69]
22 | 1000 to 5000 nM | 100 to 1000 nM | Cn1cc(-c2cccc(-c3ncc(-c4ccn(C)n4)c(NCCCO)n3)c2)cn1 [Example 68]
23 | > 5000 nM | 100 to 1000 nM | Cn1cc(-c2cccc(-c3ncc(-c4ccn(C)n4)c(NC4CCC5CNCC54)n3)c2)cn1 (stereo not shown) [Example 154]
24 | 1000 to 5000 nM | 100 to 1000 nM | Cn1cc(-c2cccc(-c3ncc(-c4ccn(C)n4)c(NCC4(O)CCNCC4(C)C)n3)c2)cn1 (stereo not shown) [Example 114]

Row | IC50 [1] | IC50 (IRAK4) | SMILES
25 | 1000 to 5000 nM | 100 to 1000 nM | Cn1cc(-c2cccc(-c3ncc(-c4cnn(C)c4)c(NCC4(F)CCN(S(C)(=O)=O)CC4)n3)c2)cn1 [Example 236]
26 | 1000 to 5000 nM | > 5000 nM | Cn1cc(-c2cccc(-c3ncc(-c4cnn(C)c4)c(N4CCCC(CNC(=O)OC(C)(C)C)C4)n3)c2)cn1 (stereo not shown) [Example 5, (1-{5-(1-Methyl-1H-pyrazol-4-yl)-2-[3-(1-methyl-1H-pyrazol-4-yl)-phenyl]-pyrimidin-4-yl}-piperidin-3-ylmethyl)-carbamic Acid Tert-Butyl Ester]
27 | 1000 to 5000 nM | 100 to 1000 nM | Cn1cc(-c2cccc(-c3ncc(-c4cnn(C)c4)c(NCC4CCCC4N)n3)c2)cn1 (stereo not shown) [Example 200]
28 | 100 to 1000 nM | < 100 nM | Cn1cc(-c2cccc(-c3ncc(-c4cnn(C)c4)c(NCC4CCOC4)n3)c2)cn1 (racemic) [Example 166]
29 | > 5000 nM | 1000 to 5000 nM | Cn1cc(-c2cccc(-c3ncc(-c4cnn(C)c4)c(NCCCN4CCOCC4)n3)c2)cn1 [Example 51]
30 | > 5000 nM | 100 to 1000 nM | Cn1cc(-c2cccc(-c3ncc(-c4cnn(C)c4)c(NC[C@H]4CCNC[C@H]4O)n3)c2)cn1 (racemic) [Example 126]
31 | > 5000 nM | 100 to 1000 nM | Cn1cc(-c2cccc(-c3ncc(-c4ccn(C)n4)c(NCC4CCCC(O)C4)n3)c2)cn1 (stereo not shown) [Example 122]
32 | 100 to 1000 nM | < 100 nM | Cn1cc(-c2cccc(-c3ncc(-c4cnn(C)c4)c(NCC4CCN(S(C)(=O)=O)C4)n3)c2)cn1 (stereo not shown) [Example 158]
33 | 1000 to 5000 nM | 100 to 1000 nM | Cn1cc(-c2cccc(-c3ncc(-c4cnn(C)c4)c(NCC4CCCC4NS(C)(=O)=O)n3)c2)cn1 (stereo not shown) [Example 203]
34 | > 5000 nM | 100 to 1000 nM | Cn1cc(-c2cccc(-c3ncc(-c4cnn(C)c4)c(NCCCCN)n3)c2)cn1 [Example 88]
35 | > 5000 nM | 100 to 1000 nM | Cn1cc(-c2cccc(-c3ncc(-c4cnn(C)c4)c(N[C@H]4CCNC4)n3)c2)cn1 [Example 121]
36 | > 5000 nM | 1000 to 5000 nM | Cn1cc(-c2cccc(-c3ncc(-c4cnn(C)c4)c(N4CCC(CN)C4)n3)c2)cn1 (stereo not shown) [Example 264]
37 | > 5000 nM | 1000 to 5000 nM | Cn1cc(-c2cccc(-c3ncc(-c4cnn(C)c4)c(NCCC4CCCCN4)n3)c2)cn1 (stereo not shown) [Example 251]
38 | > 5000 nM | 1000 to 5000 nM | Cn1cc(-c2cccc(-c3ncc(-c4cnn(C)c4)c(NCCN)n3)c2)cn1 [Example 34]
39 | 100 to 1000 nM | < 100 nM | Cn1cc(-c2cccc(-c3ncc(-c4cnn(C)c4)c(NC(C)(C)C)n3)c2)cn1 [Example 223]
40 | > 5000 nM | > 5000 nM | Cn1cc(-c2cccc(-c3ncc(-c4cnn(C)c4)c(NC4(CO)COC4)n3)c2)cn1 [Example 92]
41 | > 5000 nM | 100 to 1000 nM | Cn1cc(-c2cccc(-c3ncc(-c4cnn(C)c4)c(NCC4CCNC4)n3)c2)cn1 (stereo not shown) [Example 145]
42 | 1000 to 5000 nM | 100 to 1000 nM | Cn1cc(-c2cccc(-c3ncc(-c4cnn(C)c4)c(N[C@@H]4CNC[C@@H](F)C4)n3)c2)cn1 [Example 130]
43 | 100 to 1000 nM | 100 to 1000 nM | Cn1cc(-c2cccc(-c3ncc(-c4cnn(C)c4)c(NCCCC(C)(C)O)n3)c2)cn1 [Example 139]
44 | > 5000 nM | < 100 nM | Cn1cc(-c2cccc(-c3ncc(-c4nnc(C(=O)N5CC[C@@H](O)C5)s4)c(NCC4CNC4)n3)c2)cn1 [Example 106]
45 | 100 to 1000 nM | 100 to 1000 nM | Cn1cc(-c2cccc(-c3ncc(-c4cnn(C)c4)c(NC4CC4)n3)c2)cn1 [Example 30]
46 | 100 to 1000 nM | < 100 nM | Cn1cc(-c2cccc(-c3ncc(-c4cnn(C)c4)c(NCC4CCC4)n3)c2)cn1 [Example 163]
47 | 1000 to 5000 nM | – | Cn1cc(-c2cccc(-c3ncc(-c4cnn(C)c4)c(NCC4CCCN(C(=O)OC(C)(C)C)C4)n3)c2)cn1 (stereo not shown) [Example 3, 3-({5-(1-Methyl-1H-pyrazol-4-yl)-2-[3-(1-methyl-1H-pyrazol-4-yl)-phenyl]-pyrimidin-4-ylamino}-methyl)-piperidine-1-carboxylic Acid Tert-Butyl Ester]

Row | SMILES | IC50 [1] | IC50 (IRAK4)
48 | Cn1cc(-c2cccc(-c3ncc(-c4cnn(C)c4)c(NC4CC5CCC4N5)n3)c2)cn1 (stereo not shown) [Example 193] | > 5000 nM | 100 to 1000 nM
49 | Cn1cc(-c2cccc(-c3ncc(-c4ccn(C)n4)c(N[C@H]4C[C@@H](S(C)(=O)=O)C4)n3)c2)cn1 [Example 79] | 100 to 1000 nM | 100 to 1000 nM
